Laboratory results taken from article PMC7367873, “Dissecting the sequence determinants for dephosphorylation by the catalytic subunits of phosphatases PP1 and PP2A” (Nature Communications, 2020).

Key:
GFP-14-3-3β = GFP-14-3-3β co-IP with LC-MS/MS, untreated GFP-14-3-3β versus GFP control (14-3-3 interactome); assay type: binding, human
Method: (§1) HeLa Kyoto cells expressing transiently transfected pEGFP(C1)-14-3-3β or pEGFP(C1) control plasmid, were incubated with 20 nM Calyculin A (# 9902 S, Cell Signaling Technology) for 12 min. Cells were washed twice on ice with cold PBS and after addition of 500 µL lysis buffer (100 mM NaCl, 10 mM Tris, 0.1% IGEPAL, 1 mM EDTA, 1 mM EGTA, 20 nM Calyculin A, 1x cOmplete Mini protease inhibitor cocktail (Sigma), 1 mM DTT, 1 mM MnCl2) cells were scraped from plates, lysed by 10 pushes through an injection needle (21 G, BD) and the insoluble fraction was pelleted by centrifugation (10 min, 10^4 rcf, 4 °C). Supernatants were then subjected to incubation with 1 µM recombinant phosphatase or buffer for 1 h at 30 °C. Next, we subjected samples to immunoprecipitation using α-GFP nanobodies covalently coupled to agarose beads (2 h, 4 °C, obtained from the EMBL PEPcore Core Facility). Beads were then washed three times with lysis buffer and samples were eluted in 1x LDS sample buffer (Thermo Fisher Scientific) by heating to 70 °C for 10 min.
(§2) The samples were then reduced with 25 mM dithiothreitol (10 min at 70 °C) and alkylated with 55 mM chloroacetamide (room temperature, 30 min, in the dark). Proteins were run on a precast 4–12% NuPAGE gel (ThermoFisher Scientific) for about 1 cm to concentrate the sample prior to in-gel tryptic digestion, which was performed according to the standard procedures. The peptides obtained were dried to completeness and resuspended in 12 µL of buffer A (0.1% FA), and 5 µL of sample were injected per MS measurement. The experiment was carried out in three independent replicates.
(§3) The samples were analyzed by LC-MS/MS on a Dionex Ultimate 3000 nano-HPLC coupled online to a Fusion Lumos Tribrid mass spectrometer (Thermo Fisher Scientific). Peptides were delivered to a trap column (75 µm × 2 cm, packed in-house with 5 µm C18 resin; Reprosil PUR AQ, Dr. Maisch) and washed using 0.1% FA at a flow rate of 5 µL/min for 10 min. Subsequently, peptides were transferred to an analytical column (75 µm × 45 cm, packed in-house with 3 µm C18 resin; Reprosil Gold) applying a flow rate of 300 nL/min and separated using a 60 min linear gradient from 4% to 32% LC solvent B (0.1% FA, 5% DMSO in ACN) in LC solvent A (0.1% FA in 5% DMSO). The eluate from the analytical column was sprayed via a stainless steel emitter (Thermo Fisher Scientific) at a source voltage of 2.1 kV into the mass spectrometer. The transfer capillary was heated to 275 °C. The Fusion Lumos was operated in positive ionization mode and data-dependent acquisition (DDA), automatically switching between MS1 and MS2 spectrum acquisition. Full scan MS1 spectra were recorded in the Orbitrap from 360 to 1300 m/z at a resolution of 60k (automatic gain control (AGC) target value of 4e5 charges, maximum injection time (maxIT) of 50 ms). Up to 20 peptide precursors were isolated (isolation window, 1.7 m/z; maximum injection time, 25 ms; and AGC value, 1e5), fragmented by high-energy collision-induced dissociation (HCD) using 30% normalized collision energy (NCE), and analyzed at a resolution of 15k in the Orbitrap. Precursor ions that were singly charged, unassigned, or with charge states >6+ were excluded. The dynamic exclusion duration of fragmented precursor ions was 20 s.
(§4) Peptide and protein identification and LFQ were performed using MaxQuant software (version 1.6.1.0)[64] by searching the data against all canonical protein sequences as annotated in the Swissprot reference database (human proteins only, 20193 entries, downloaded 22 March 2016, internally annotated with PFAM domains) using the embedded search engine Andromeda[65]. The MaxQuant search was performed using two variable modifications; oxidation of methionine and N-terminal protein acetylation. Carbamidomethylation on cysteines was specified as a fixed modification. Trypsin (Trypsin/P) was specified as the proteolytic enzyme with up to two allowed missed cleavage sites.

[1] = tested on: GFP-14-3-3β and its binding proteins; assay: GFP-14-3-3β co-IP with LC-MS/MS label-free quantification, untreated versus PP1c-treated; design: species or system human
Method: as §1, §2, §3, §4

[2] = untreated vs GFP, LFQ intensities, 3 replicates each
[3] = PP1 vs untreated, LFQ intensities, 3 replicates each
[4] = untreated vs GFP, label-free quantification
[5] = PP1 vs untreated, label-free quantification
[6] = GFP-14-3-3β co-IP LC-MS/MS, untreated vs GFP, student's t-test, label-free quantification, 3 replicates each
[7] = GFP-14-3-3β co-IP LC-MS/MS, PP1 vs untreated, student's t-test, label-free quantification, 3 replicates each
[8] = pairwise comparison untreated vs GFP
[9] = pairwise comparison PP1 vs untreated
[10] = pairwise comparison untreated GFP-14-3-3β vs GFP, student's t-test, 3 replicates each, LC-MS/MS label-free quantification
[11] = pairwise comparison PP1 vs untreated, student's t-test, 3 replicates each, LC-MS/MS label-free quantification
[12] = untreated vs GFP, LFQ intensities, replicates 1-3
[13] = PP1 vs untreated, LFQ intensities, replicates 1-3
[14] = log2 difference, pairwise comparison untreated vs GFP, label-free quantification, 3 replicates each
[15] = log2 difference, pairwise comparison PP1 vs untreated, label-free quantification, 3 replicates each

ABCF1
Difference (log2), untreated vs GFP (GFP-14-3-3β; [2]): 1.553 log2 | Difference (log2), PP1 vs untreated [1, 3]: 0.4338 log2

AGO2
Difference (log2), untreated vs GFP (GFP-14-3-3β; [4]): 0.05278 log2 | Difference (log2), PP1 vs untreated [1, 5]: 0.7956 log2

AHNAK
Difference (log2), untreated vs GFP (GFP-14-3-3β; [6]): -1.21 log2 | Difference (log2), PP1 vs untreated [1, 7]: -0.4038 log2

AKAP13
Difference (log2), untreated vs GFP (GFP-14-3-3β; [6]): 1.366 log2 | Difference (log2), PP1 vs untreated [1, 7]: -0.6453 log2

ANXA2;ANXA2P2
Difference (log2), untreated vs GFP (GFP-14-3-3β; [8]): -0.03703 log2 | Difference (log2), PP1 vs untreated [1, 9]: 0.07284 log2

APC
Difference (log2), untreated vs GFP (GFP-14-3-3β; [8]): 0.7989 log2 | Difference (log2), PP1 vs untreated [1, 9]: 0.0453 log2

ARAF
Difference (log2), untreated vs GFP (GFP-14-3-3β; [10]): 3.851 log2 | Difference (log2), PP1 vs untreated [1, 11]: -3.95 log2

ARHGAP21
Difference (log2), untreated vs GFP (GFP-14-3-3β; [10]): 4.914 log2 | Difference (log2), PP1 vs untreated [1, 11]: -2.341 log2

ARHGEF5
Difference (log2), untreated vs GFP (GFP-14-3-3β; [12]): 3.791 log2 | Difference (log2), PP1 vs untreated [1, 13]: -1.778 log2

ASCC3
Difference (log2), untreated vs GFP (GFP-14-3-3β; [2]): -0.1721 log2 | Difference (log2), PP1 vs untreated [1, 3]: 0.6228 log2

ATP5B
Difference (log2), untreated vs GFP (GFP-14-3-3β; [14]): -0.3021 | Difference (log2), PP1 vs untreated [1, 15]: 1.371

BCLAF1
Difference (log2), untreated vs GFP (GFP-14-3-3β; [12]): 1.7962 log2 | Difference (log2), PP1 vs untreated [1, 13]: -1.628 log2

BRAF
Difference (log2), untreated vs GFP (GFP-14-3-3β; [12]): 7.361 log2 | Difference (log2), PP1 vs untreated [1, 13]: -1.253 log2

CAD
Difference (log2), untreated vs GFP (GFP-14-3-3β; [6]): 0.93 log2 | Difference (log2), PP1 vs untreated [1, 7]: -0.6324 log2

CCT3
Difference (log2), untreated vs GFP (GFP-14-3-3β; [4]): 0.2505 log2 | Difference (log2), PP1 vs untreated [1, 5]: 0.8223 log2

CD44
Difference (log2), untreated vs GFP (GFP-14-3-3β; [10]): 0.8931 log2 | Difference (log2), PP1 vs untreated [1, 11]: -2.392 log2

CD109
Difference (log2), untreated vs GFP (GFP-14-3-3β; [2]): -1.476 log2 | Difference (log2), PP1 vs untreated [1, 3]: 0.7153 log2

CEP170
Difference (log2), untreated vs GFP (GFP-14-3-3β; [2]): 2.101 log2 | Difference (log2), PP1 vs untreated [1, 3]: 0.4617 log2

CFL1
Difference (log2), untreated vs GFP (GFP-14-3-3β; [2]): -1.088 log2 | Difference (log2), PP1 vs untreated [1, 3]: 0.4849 log2

CHD4
Difference (log2), untreated vs GFP (GFP-14-3-3β; [6]): 2.168 log2 | Difference (log2), PP1 vs untreated [1, 7]: -0.3658 log2

CKAP5
Difference (log2), untreated vs GFP (GFP-14-3-3β; [6]): -0.6501 log2 | Difference (log2), PP1 vs untreated [1, 7]: -0.2118 log2

CLASP1
Difference (log2), untreated vs GFP (GFP-14-3-3β; [6]): 1.4296 log2 | Difference (log2), PP1 vs untreated [1, 7]: -0.7054 log2

CLPX
Difference (log2), untreated vs GFP (GFP-14-3-3β; [4]): 0.9407 log2 | Difference (log2), PP1 vs untreated [1, 5]: 1.1943 log2

CLTC
Difference (log2), untreated vs GFP (GFP-14-3-3β; [6]): 0.0549 log2 | Difference (log2), PP1 vs untreated [1, 7]: -0.2648 log2

CORO1C
Difference (log2), untreated vs GFP (GFP-14-3-3β; [2]): -0.8872 log2 | Difference (log2), PP1 vs untreated [1, 3]: 0.3782 log2

CSE1L
Difference (log2), untreated vs GFP (GFP-14-3-3β; [8]): -0.7283 log2 | Difference (log2), PP1 vs untreated [1, 9]: 0.2293 log2

DDX6
Difference (log2), untreated vs GFP (GFP-14-3-3β; [6]): 1.378 log2 | Difference (log2), PP1 vs untreated [1, 7]: -0.3213 log2

DDX21
Difference (log2), untreated vs GFP (GFP-14-3-3β; [6]): 2.481 log2 | Difference (log2), PP1 vs untreated [1, 7]: -0.7087 log2

DDX60
Difference (log2), untreated vs GFP (GFP-14-3-3β; [14]): -0.05993 | Difference (log2), PP1 vs untreated [1, 15]: 1.555

DENND4A
Difference (log2), untreated vs GFP (GFP-14-3-3β; [10]): 5.3156 log2 | Difference (log2), PP1 vs untreated [1, 11]: -5.672 log2

DENND4C
Difference (log2), untreated vs GFP (GFP-14-3-3β; [10]): 3.4091 log2 | Difference (log2), PP1 vs untreated [1, 11]: -4.253 log2

DHX9
Difference (log2), untreated vs GFP (GFP-14-3-3β; [6]): 1.512 log2 | Difference (log2), PP1 vs untreated [1, 7]: -0.3598 log2

DNAJA1
Difference (log2), untreated vs GFP (GFP-14-3-3β; [8]): -0.4796 log2 | Difference (log2), PP1 vs untreated [1, 9]: -0.1402 log2

DNAJA2
Difference (log2), untreated vs GFP (GFP-14-3-3β; [2]): -1.855 log2 | Difference (log2), PP1 vs untreated [1, 3]: 0.6145 log2
